Molecular target: T1, TREK-1 (TWIK-related potassium channel-1) (Rattus norvegicus, UniProt Q920B6)
T1 construct: gene Kcnk2
T1 sequence (Q920B6 1-426): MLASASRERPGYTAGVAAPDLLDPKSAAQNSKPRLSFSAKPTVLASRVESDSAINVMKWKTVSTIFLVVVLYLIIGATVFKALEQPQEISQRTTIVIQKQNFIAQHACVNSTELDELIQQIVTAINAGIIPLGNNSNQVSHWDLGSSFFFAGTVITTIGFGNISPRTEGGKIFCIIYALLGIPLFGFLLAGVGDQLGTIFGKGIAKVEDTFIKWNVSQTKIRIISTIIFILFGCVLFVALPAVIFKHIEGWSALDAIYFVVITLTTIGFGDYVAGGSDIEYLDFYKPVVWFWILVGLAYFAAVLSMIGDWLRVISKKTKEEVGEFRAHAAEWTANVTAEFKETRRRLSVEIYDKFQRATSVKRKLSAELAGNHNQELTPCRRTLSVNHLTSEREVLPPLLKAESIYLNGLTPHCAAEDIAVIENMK
Assay: whole-cell and inside-out single-channel patch clamp of TREK-1 overexpressed in HEK-293 cells
Format: cell-based

IC50: 302 ± 17.6 µM
SMILES: CCCCN1CCCCC1C(=O)Nc1c(C)cccc1C (stereo not shown) [bupivacaine]
